Experimental data taken from US10322037B2, “Absorbent article” (UNICHARM CORPORATION, priority 2012, dated 2019).

Description: As used herein, the term “solubility” in regard to water solubility includes cases where the sample completely dissolves in deionized water to form a homogeneous mixture, and cases where the sample is completely emulsified. As used herein, “completely” means that no mass of the sample remains in the deionized water.

Row | Compound | Water solubility [g]
1 | CCCCCCCCCCCCOC(=O)CCCCCCCCCCC [2-18] | <0.05
2 | CCCCCCCCCCCCCC(=O)OCCCCCCCCCCCC [2-19] | <0.05
